Results published in patent publication US12252524B2, “GIP/GLP1 co-agonist compounds” (Eli Lilly and Company, priority 2018, dated 2025).
Numbered stars: 1 amine (or outer) side, 2 acyl side, 3 side chain; on linkers, the order of the positions; unused ones are H or OH. Square brackets hold non-standard residues; d marks the D form. Side chains are listed from the residue outwards. Peptide text beside a SMILES is read from it. * marks the point of attachment. C20 diacid = O=C(O)CCCCCCCCCCCCCCCCCCC(=O)*; C18 diacid = O=C(O)CCCCCCCCCCCCCCCCC(=O)*; γGlu = O=C(O)[C@H](CCC(=O)[*:2])N[*:1]; αMeY = C[C@](N)(Cc1ccc(O)cc1)C(=O)O; αMeL = CC(C)C[C@](C)(N)C(=O)O; Orn = NCCC[C@H](N)C(=O)O; AEEA = NCCOCCOCC(=O)O; Aib = CC(C)(N)C(=O)O

Experiments:
[1] = molecular target: T1, human GLP-1R (Homo sapiens, UniProt P43220); test: GLP-1R HEK293 cell membrane [35S]GTPγS binding assay; format: biochemical; design: expressed in transfected cells; host or cells: HEK293 cells expressing human GLP-1R; membranes; details: HEK293 cell membranes expressing human GLP-1R, [35S]GTPγS binding; read-out: hGLP1R GTPgS Rel EC50 nM (SEM, n)
T1 sequence (P43220 24-463): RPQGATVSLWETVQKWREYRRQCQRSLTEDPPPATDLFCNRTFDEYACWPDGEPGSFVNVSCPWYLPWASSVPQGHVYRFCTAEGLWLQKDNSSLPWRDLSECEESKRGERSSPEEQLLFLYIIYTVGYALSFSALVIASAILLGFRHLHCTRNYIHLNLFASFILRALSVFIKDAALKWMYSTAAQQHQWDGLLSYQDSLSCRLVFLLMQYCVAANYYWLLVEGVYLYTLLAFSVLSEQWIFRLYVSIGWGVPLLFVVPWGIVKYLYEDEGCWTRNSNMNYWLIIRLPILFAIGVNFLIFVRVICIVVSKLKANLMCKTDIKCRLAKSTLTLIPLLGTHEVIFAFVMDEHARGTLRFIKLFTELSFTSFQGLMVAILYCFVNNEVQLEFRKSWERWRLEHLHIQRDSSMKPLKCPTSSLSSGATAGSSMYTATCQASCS
Outline: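 Agonist-driven Gαs activation read as [35S]GTPγS ([…]) binding to receptor-expressing HEK293 membranes, 30 min at room temperature, pH 7.4. Detection by anti-Gαs immunocapture on scintillation beads; EC50 derived from four-parameter logistic concentration-response fit.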

[2] = molecular target: T2, gastric inhibitory peptide receptor (GIPR) (Homo sapiens, UniProt P48546); test: cAMP pharmacological functional assay in presence of casein, hGIPR; format: cell-based; details: HEK293 cells expressing hGIPR, 0.1% Casein, geometric mean; read-out: hGIPR cAMP Rel EC50 nM (SEM, n)
T2 sequence (P48546 22-466): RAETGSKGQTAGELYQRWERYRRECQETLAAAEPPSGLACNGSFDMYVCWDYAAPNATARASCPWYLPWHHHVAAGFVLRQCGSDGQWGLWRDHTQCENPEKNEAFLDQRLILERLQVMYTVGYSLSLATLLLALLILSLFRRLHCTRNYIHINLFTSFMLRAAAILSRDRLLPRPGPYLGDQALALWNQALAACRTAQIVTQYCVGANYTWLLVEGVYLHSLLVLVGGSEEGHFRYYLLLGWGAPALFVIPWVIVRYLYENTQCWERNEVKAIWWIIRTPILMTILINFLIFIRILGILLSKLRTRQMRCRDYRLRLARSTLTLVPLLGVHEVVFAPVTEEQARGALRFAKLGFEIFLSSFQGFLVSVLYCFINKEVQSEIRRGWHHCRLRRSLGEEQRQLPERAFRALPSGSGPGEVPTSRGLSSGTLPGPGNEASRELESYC

[3] = molecular target: human GLP-1 receptor (GLP-1R) (Homo sapiens, UniProt P43220); test: cAMP pharmacological functional assay in presence of casein, hGLP-1R; format: cell-based; details: HEK293 cells expressing hGLP-1R, 0.1% Casein, geometric mean; read-out: hGLP1R cAMP Rel EC50 nM (SEM, n)
Sequence of human GLP-1 receptor (GLP-1R) (P43220 24-463): as the sequence (P43220 24-463) above

[4] = molecular target: T1, human GLP-1R; test: GLP-1R CHO cell β-arrestin recruitment assay; format: cell-based; design: host or cells: CHO-K1 PathHunter cells, assay-ready frozen; details: for EC50: CHO-K1 cells, PathHunter β-arrestin-2 recruitment, 0.1% casein, read-out: hGLP1R B-Arrestin2 Rel EC50 uM (SEM, n); for hGLP1R B-Arrestin2 % Top: normalized to GLP-1 maximum control
Outline: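 Peptide-induced β-arrestin-2 recruitment measured by enzyme-fragment complementation luminescence after 90 min at 37 °C plus 60 min detection at RT.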

Row | Compound | EC50 [1] | EC50 [2] | EC50 [3] | EC50 [4] | hGLP1R B-Arrestin2 % Top [4]
1 | CC[C@H](C)[C@H](NC(=O)[C@H](CC(C)C)NC(=O)[C@](C)(Cc1ccc(O)cc1)NC(=O)[C@H](CCC(=O)O)NC(=O)[C@@H](NC(=O)[C@H](Cc1ccccc1)NC(=O)[C@H](C)NC(=O)C(C)(C)NC(=O)[C@H](CCC(N)=O)NC(=O)[C@H](C)NC(=O)[C@H](CCCCNC(=O)COCCOCCNC(=O)CC[C@H](NC(=O)CCCCCCCCCCCCCCCCCCC(=O)O)C(=O)O)NC(=O)[C@H](CCCCN)NC(=O)[C@H](CC(=O)O)NC(=O)[C@H](CC(C)C)NC(=O)[C@](C)(CC(C)C)NC(=O)[C@@H](NC(=O)[C@H](CO)NC(=O)[C@H](Cc1ccc(O)cc1)NC(=O)[C@H](CC(=O)O)NC(=O)[C@H](CO)NC(=O)[C@@H](NC(=O)[C@H](Cc1ccccc1)NC(=O)[C@@H](NC(=O)CNC(=O)[C@H](CCC(=O)O)NC(=O)C(C)(C)NC(=O)[C@H](N)Cc1ccc(O)cc1)[C@@H](C)O)[C@@H](C)O)[C@@H](C)CC)[C@@H](C)CC)C(=O)N[C@@H](C)C(=O)NCC(=O)NCC(=O)N1CCC[C@H]1C(=O)N[C@@H](CO)C(=O)N[C@@H](CO)C(=O)NCC(=O)N[C@@H](C)C(=O)N1CCC[C@H]1C(=O)N1CCC[C@H]1C(=O)N1CCC[C@H]1C(=O)N[C@@H](CO)C(N)=O [Example 373] (H-[dY][Aib]EGTFTSDYSI[αMeL]LDKK([AEEA-γGlu-C20 diacid])AQ[Aib]AFIE[αMeY]LIAGGPSSGAPPPS-NH2) | 0.336 nM | 0.185 nM | 0.436 nM | 0.00954 µM | 22.9%
2 | CC[C@H](C)[C@H](NC(=O)[C@H](CC(C)C)NC(=O)[C@](C)(Cc1ccc(O)cc1)NC(=O)[C@H](CCC(=O)O)NC(=O)[C@@H](NC(=O)[C@H](Cc1ccccc1)NC(=O)[C@H](CCC(=O)O)NC(=O)C(C)(C)NC(=O)[C@H](CCC(N)=O)NC(=O)[C@H](C)NC(=O)[C@H](CCCCNC(=O)COCCOCCNC(=O)COCCOCCNC(=O)CC[C@H](NC(=O)CCCCCCCCCCCCCCCCC(=O)O)C(=O)O)NC(=O)[C@H](CCCCN)NC(=O)[C@H](CC(=O)O)NC(=O)[C@H](CC(C)C)NC(=O)[C@](C)(CC(C)C)NC(=O)[C@@H](NC(=O)[C@H](CO)NC(=O)[C@H](Cc1ccc(O)cc1)NC(=O)[C@H](CC(=O)O)NC(=O)[C@H](CO)NC(=O)[C@@H](NC(=O)[C@H](Cc1ccccc1)NC(=O)[C@@H](NC(=O)CNC(=O)[C@H](CCC(=O)O)NC(=O)C(C)(C)NC(=O)[C@H](N)Cc1ccc(O)cc1)[C@@H](C)O)[C@@H](C)O)[C@@H](C)CC)[C@@H](C)CC)C(=O)N[C@@H](C)C(=O)NCC(=O)NCC(=O)N1CCC[C@H]1C(=O)N[C@@H](CO)C(=O)N[C@@H](CO)C(=O)NCC(=O)N[C@@H](C)C(=O)N1CCC[C@H]1C(=O)N1CCC[C@H]1C(=O)N1CCC[C@H]1C(=O)N[C@@H](CO)C(N)=O [Example 374] (H-[dY][Aib]EGTFTSDYSI[αMeL]LDKK([AEEA-AEEA-γGlu-C18 diacid])AQ[Aib]EFIE[αMeY]LIAGGPSSGAPPPS-NH2) | 0.345 nM | 0.0468 nM | 0.19 nM | 0.0218 µM | 34.7%
3 | CC[C@H](C)[C@H](NC(=O)[C@H](CC(C)C)NC(=O)[C@](C)(Cc1ccc(O)cc1)NC(=O)[C@H](CCC(=O)O)NC(=O)[C@@H](NC(=O)[C@H](Cc1ccccc1)NC(=O)[C@H](CCC(=O)O)NC(=O)C(C)(C)NC(=O)[C@H](CCC(N)=O)NC(=O)[C@H](C)NC(=O)[C@H](CCCCNC(=O)COCCOCCNC(=O)COCCOCCNC(=O)CC[C@H](NC(=O)CCCCCCCCCCCCCCCCC(=O)O)C(=O)O)NC(=O)[C@H](CCCN)NC(=O)[C@H](CC(=O)O)NC(=O)[C@H](CC(C)C)NC(=O)[C@](C)(CC(C)C)NC(=O)[C@@H](NC(=O)[C@H](CO)NC(=O)[C@H](Cc1ccc(O)cc1)NC(=O)[C@H](CC(=O)O)NC(=O)[C@H](CO)NC(=O)[C@@H](NC(=O)[C@H](Cc1ccccc1)NC(=O)[C@@H](NC(=O)CNC(=O)[C@H](CCC(=O)O)NC(=O)C(C)(C)NC(=O)[C@H](N)Cc1ccc(O)cc1)[C@@H](C)O)[C@@H](C)O)[C@@H](C)CC)[C@@H](C)CC)C(=O)N[C@@H](C)C(=O)NCC(=O)NCC(=O)N1CCC[C@H]1C(=O)N[C@@H](CO)C(=O)N[C@@H](CO)C(=O)NCC(=O)N[C@@H](C)C(=O)N1CCC[C@H]1C(=O)N1CCC[C@H]1C(=O)N1CCC[C@H]1C(=O)N[C@@H](CO)C(N)=O [Example 375] (H-[dY][Aib]EGTFTSDYSI[αMeL]LD[Orn]K([AEEA-AEEA-γGlu-C18 diacid])AQ[Aib]EFIE[αMeY]LIAGGPSSGAPPPS-NH2) | 0.419 nM | 0.0471 nM | 0.152 nM | 0.0114 µM | 24.2%
4 | CC[C@H](C)[C@H](NC(=O)[C@H](CC(C)C)NC(=O)[C@](C)(Cc1ccc(O)cc1)NC(=O)[C@H](CCC(=O)O)NC(=O)[C@@H](NC(=O)[C@H](Cc1ccccc1)NC(=O)[C@H](C)NC(=O)C(C)(C)NC(=O)[C@H](CCC(N)=O)NC(=O)[C@H](C)NC(=O)[C@H](CCCCNC(=O)COCCOCCNC(=O)COCCOCCNC(=O)CC[C@H](NC(=O)CCCCCCCCCCCCCCCCC(=O)O)C(=O)O)NC(=O)[C@H](CCCCN)NC(=O)[C@H](CC(=O)O)NC(=O)[C@H](CC(C)C)NC(=O)[C@](C)(CC(C)C)NC(=O)[C@@H](NC(=O)[C@H](CO)NC(=O)[C@H](Cc1ccc(O)cc1)NC(=O)[C@H](CC(=O)O)NC(=O)[C@H](CO)NC(=O)[C@@H](NC(=O)[C@H](Cc1ccccc1)NC(=O)[C@@H](NC(=O)CNC(=O)[C@H](CCC(=O)O)NC(=O)C(C)(C)NC(=O)[C@H](N)Cc1ccc(O)cc1)[C@@H](C)O)[C@@H](C)O)[C@@H](C)CC)[C@@H](C)CC)C(=O)N[C@@H](C)C(=O)NCC(=O)NCC(=O)N1CCC[C@H]1C(=O)N[C@@H](CO)C(=O)N[C@@H](CO)C(=O)NCC(=O)N[C@@H](C)C(=O)N1CCC[C@H]1C(=O)N1CCC[C@H]1C(=O)N1CCC[C@H]1C(=O)N[C@@H](CO)C(N)=O [Example 376] (H-[dY][Aib]EGTFTSDYSI[αMeL]LDKK([AEEA-AEEA-γGlu-C18 diacid])AQ[Aib]AFIE[αMeY]LIAGGPSSGAPPPS-NH2) | 0.326 nM | 0.0723 nM | 0.17 nM | 0.0123 µM | 25.6%
5 | CC[C@H](C)[C@H](NC(=O)[C@H](CC(C)C)NC(=O)[C@](C)(Cc1ccc(O)cc1)NC(=O)[C@H](CCC(=O)O)NC(=O)[C@@H](NC(=O)[C@H](Cc1ccccc1)NC(=O)[C@H](C)NC(=O)C(C)(C)NC(=O)[C@H](CCC(N)=O)NC(=O)[C@H](C)NC(=O)[C@H](CCCCNC(=O)COCCOCCNC(=O)COCCOCCNC(=O)CC[C@H](NC(=O)CCCCCCCCCCCCCCCCC(=O)O)C(=O)O)NC(=O)[C@H](CCCN)NC(=O)[C@H](CC(=O)O)NC(=O)[C@H](CC(C)C)NC(=O)[C@](C)(CC(C)C)NC(=O)[C@@H](NC(=O)[C@H](CO)NC(=O)[C@H](Cc1ccc(O)cc1)NC(=O)[C@H](CC(=O)O)NC(=O)[C@H](CO)NC(=O)[C@@H](NC(=O)[C@H](Cc1ccccc1)NC(=O)[C@@H](NC(=O)CNC(=O)[C@H](CCC(=O)O)NC(=O)C(C)(C)NC(=O)[C@H](N)Cc1ccc(O)cc1)[C@@H](C)O)[C@@H](C)O)[C@@H](C)CC)[C@@H](C)CC)C(=O)N[C@@H](C)C(=O)NCC(=O)NCC(=O)N1CCC[C@H]1C(=O)N[C@@H](CO)C(=O)N[C@@H](CO)C(=O)NCC(=O)N[C@@H](C)C(=O)N1CCC[C@H]1C(=O)N1CCC[C@H]1C(=O)N1CCC[C@H]1C(=O)N[C@@H](CO)C(N)=O [Example 377] (H-[dY][Aib]EGTFTSDYSI[αMeL]LD[Orn]K([AEEA-AEEA-γGlu-C18 diacid])AQ[Aib]AFIE[αMeY]LIAGGPSSGAPPPS-NH2) | 0.356 nM | 0.0544 nM | 0.136 nM | 0.00532 µM | 16.7%
